What was measured:
[1] = system: platelets; test: Lipopolysaccharide-induced platelet reduction in mice; format: in vivo; conditions: LPS 1 mg/kg, PLAG 1 mg/kg, 15 hours after PLAG treatment
Procedure: Mice are injected with 100 mg/kg phenylhydrazine (PHZ), i.p., to induce anemia and reduction of platelets. 5 mg/kg PLAG is administered to the mice orally and blood samples are taken at 3 and 13 days after. In addition, for comparison, normal mice which are not treated with phenylhydrazine are prepared as a normal group, and mice treated with PHZ and olive oil instead of PLAG are prepared as a control group. The blood samples taken from the mice are treated with 0.5 ml EDTA (Minicollect tube, Greiner bio-one, Austria) and concentration of platelet is measured using automated blood sample analyzer BC-6800 (Mindray, Shenzhen, China) by number of platelet per […] (k: 1,000).
The experiment is repeated using Tamoxifen (Tam), an anticancer agent, injected at the amount of 100 mg/kg, or lipopolysaccharide (LPS), an inflammation inducer, at the amount of 1 mg/kg to induce platelet reduction. Platelet concentration is measured 15 hours after PLAG treatment. For comparison, olive oil and PBS are used instead of PLAG as controls, respectively for the Tamoxifen and lipopolysaccharide experiment.

[2] = biological target: T1, STAT1 (Homo sapiens, UniProt P42224); test: Reporter assay for STAT1 transcriptional activity in HepG2 cells; format: cell-based; parameters: For the STAT1 assay, gene transfected HepG2 (human hepatocyte cell line) is treated with 10 ng of IFN-γ; endogenous in cells; host or cells: HepG2 (gene transfected); conditions: gene transfected HepG2, 10 ng IFN-γ, PLAG 0.01-10 μg/ml, 12 hours incubation
T1 sequence (P42224 1-750): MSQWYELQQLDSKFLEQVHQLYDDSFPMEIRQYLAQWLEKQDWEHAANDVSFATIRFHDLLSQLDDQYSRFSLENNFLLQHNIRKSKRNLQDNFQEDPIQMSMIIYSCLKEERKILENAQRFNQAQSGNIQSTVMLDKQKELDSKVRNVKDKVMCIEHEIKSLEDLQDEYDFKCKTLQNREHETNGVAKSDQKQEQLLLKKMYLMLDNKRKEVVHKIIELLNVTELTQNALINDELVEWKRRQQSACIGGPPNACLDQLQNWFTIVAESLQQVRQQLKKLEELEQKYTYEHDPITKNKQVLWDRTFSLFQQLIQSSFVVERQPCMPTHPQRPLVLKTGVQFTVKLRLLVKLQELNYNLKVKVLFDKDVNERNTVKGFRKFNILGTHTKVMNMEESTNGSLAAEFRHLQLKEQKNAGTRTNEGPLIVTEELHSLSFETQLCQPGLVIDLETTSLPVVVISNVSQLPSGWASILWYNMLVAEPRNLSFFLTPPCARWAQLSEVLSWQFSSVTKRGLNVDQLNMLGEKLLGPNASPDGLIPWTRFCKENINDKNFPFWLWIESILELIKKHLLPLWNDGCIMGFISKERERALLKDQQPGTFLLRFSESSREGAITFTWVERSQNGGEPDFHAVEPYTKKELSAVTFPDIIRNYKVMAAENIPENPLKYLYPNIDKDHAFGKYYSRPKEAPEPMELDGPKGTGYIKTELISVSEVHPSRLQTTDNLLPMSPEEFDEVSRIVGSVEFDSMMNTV
Procedure: By using STAT6 inhibitor (S6I), it is confirmed that the reduction of Complement 3 in HepG2 cells (human hepatocyte cell line) is regulated by STAT6. […] It is also confirmed that PLAG has selective efficacy on STAT6 over STAT1. FIG. 1 presents graphs showing STAT1 and STAT6 transcriptional activity in the PLAG treated HepG2 cells. NC refers to the unstimulated control cell. For the STAT1 assay, gene transfected HepG2 (human hepatocyte cell line) is treated with 10 ng of IFN-γ and serially diluted PLAG is added (0.01 μg/ml, 0.1 μg/ml, 1 μg/ml, and 10 μg/ml as shown) to see its effect on gene expression in the stimulated cell. For the STAT6 assay, gene transfected HepG2 cells are treated with 10 ng of IL-4 and again serially diluted PLAG is added (0.01 μg/ml, 0.1 μg/ml, 1 μg/ml, and 10 μg/ml as shown) to see its effect on gene expression in the stimulated cell. The assay is carried out following 12 hours incubation of treated cells.

[3] = system: C3; test: C3 expression in HepG2 cell line, RT-PCR of mRNA; format: cell-based, human; conditions: HepG2 cells, 2 hours
Procedure: A liver cell line, HepG2 (American Type Culture Collection, ATCC, Rockville, Md.), is incubated and maintained at 37° C., 5% CO2 humid atmosphere in DMEM medium. When HepG2 cells, which are known to produce complement in culture, are treated with PLAG, the activity of complement is reduced effectively, as confirmed by RT-PCR of mRNA. In the RT-PCR, 5×10^5 number of HepG2 cells/ml are distributed into 12 well plates and induced C3 for 12 hours with 10% FCS. Then PLAG is added and further cultured for 2 hours. Cells are harvested and mRNA is isolated and RT-PCR is carried out with specific primer of C3; GAPDH is used as an internal control.

[4] = system: white blood cells and neutrophils; test: PLAG in combination with G-CSF in cyclophosphamide-treated mouse model; format: in vivo, mice; conditions: addition of PLAG to G-CSF; levels vs untreated mice
Source text: Mice receive cyclophosphamide (100 mpk, i.p.) for a period of ten days, with or without G-CSF (0.25 mpk, i.p.) or G-CSF (0.25 mpk, i.p.) plus PLAG (25 mpk, p.o.): […]

[5] = system: HepG2 cells; test: WST-1 cell viability assay in HepG2 cells; format: cell-based; conditions: PLAG 1 to 100 μg/ml
Procedure: (§1) The incubated HepG2 cell lines are treated with PLAG (1˜100 μg/ml), followed by IL-4 and TNF-α, reacted for 1 hour, incubated for 18 hours at 37° C. and the supernatant isolated. Quantitation of the amount of C3 in the cellular culture medium (supernatant) from HepG2 cells is performed by ELISA using a commercially available monoclonal antibody (mAb, R&D Systems) and the manufacture's protocol; the results are presented in FIG. 3. C3 is expressed spontaneously under in vitro culture condition using 10% FCS added to HepG2 cells incubated for 12 hr. The cells are treated with different doses of PLAG from 1 to 100 μg/ml (Panel A, Panel B) or 10 and 100 μg/ml of S6I (Panel C), reacted with IL-4 and TNF-α for 1 hr and then incubated for 18 hr at 37° C. Cellular viability is confirmed using the WST-1 assay (Panel A).

[6] = system: C3; test: C3 in culture supernatant of HepG2 cells, ELISA; format: cell-based, human; conditions: PLAG 1 to 100 μg/ml or S6I 10 and 100 μg/ml, IL-4 and TNF-α 1 hr, 18 hr at 37° C.
Procedure: as §1

## CCCCC/C=C\C/C=C\CCCCCCCC(=O)OC(COC(C)=O)COC(=O)CCCCCCCCCCCCCCC (racemic) [PLAG, 1-palmitoyl-2-linoleoyl-3-acetylglycerol]
[1]
  Platelet Conc.: 450.00 k/ul
[2]
  STAT1 expression (transcriptional activity, reporter): no effect
[3]; PLAG 1 microgram/ml
  inhibition of C3 expression (RT-PCR): somewhat
[3]; PLAG 10 microgram/ml
  inhibition of C3 expression (RT-PCR): entirely
[4]
  protection from cyclophosphamide-induced neutropenia: substantially complete protection
[5]
  cellular viability (WST-1): does not affect the cellular propagation and death
[6]
  expression of C3 (amount in supernatant, ELISA): decreased dose-dependently

— patent US11491132B2, “Methods for treating thrombocytopenia” (Enzychem Lifesciences Corporation, priority 2014, dated 2022)
